In patent US6545033B1, “Fused 1-(2,6-dichloro-4-trifluoromethylphenyl)-pyrazoles, the synthesis thereof and the use thereof as pesticides” (3-Dimensional Pharmaceuticals, Inc., priority 1999, dated 2003):

Experiments:
[1] = molecular target: T1, Housefly GABA receptors (Musca domestica, UniProt Q75NA5); assay: In vitro assay of binding to housefly GABA receptors (3H-EBOB displacement, housefly neuronal membranes); settings: for Compounds with the most activity (housefly 3H-EBOB binding): housefly neuronal membranes
T1 sequence (Q75NA5 30-576): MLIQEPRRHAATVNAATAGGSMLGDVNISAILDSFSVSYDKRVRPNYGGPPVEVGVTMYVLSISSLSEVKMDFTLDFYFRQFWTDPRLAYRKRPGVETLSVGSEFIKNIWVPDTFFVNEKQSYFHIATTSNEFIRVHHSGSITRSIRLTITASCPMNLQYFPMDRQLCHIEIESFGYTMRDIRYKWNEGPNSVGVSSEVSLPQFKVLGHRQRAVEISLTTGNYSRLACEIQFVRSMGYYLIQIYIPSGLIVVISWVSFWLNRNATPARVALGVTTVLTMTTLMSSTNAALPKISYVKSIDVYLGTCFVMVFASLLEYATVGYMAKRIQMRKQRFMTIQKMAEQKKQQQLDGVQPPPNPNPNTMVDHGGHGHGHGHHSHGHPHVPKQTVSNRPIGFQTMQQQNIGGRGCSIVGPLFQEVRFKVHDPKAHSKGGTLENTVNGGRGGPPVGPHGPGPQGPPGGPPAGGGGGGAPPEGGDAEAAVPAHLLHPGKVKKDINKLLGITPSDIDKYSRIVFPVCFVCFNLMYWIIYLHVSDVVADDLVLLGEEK
Procedure: Newly emerged houseflies (Musca domestica, available from Rincon-Vitova Insectaries, Inc., Ventura, Calif.) were sedated with carbon dioxide gas, collected in 50 mL polypropylene conical tubes, and immediately frozen by submersion in liquid nitrogen. Unless specified, all of the following work was performed at 0-4° C. After removal from liquid nitrogen, the tubes of frozen houseflies were shaken vigorously by hand to decapitate the houseflies. […] Contaminating wings were removed by holding a vacuum nozzle approximately 4 cm above the heads, and contaminating legs were separated from the heads by passage through a #15 mesh screen. All remaining debris were removed from the pool of heads using forceps. The purified heads were collected in 50 mL polypropylene conical tubes and stored in liquid nitrogen until processed further.
About 13 g of purified housefly heads were suspended in about 65 mL of 10% sucrose buffer (10% sucrose (w/w) in 10 mM Tris, pH 7.5). The heads were homogenized for about 1 minute, using a Tissumizer™ homogenizer equipped with a SDT-100EN probe (available from Tekmar-Dohrmann, Cincinnati, Ohio) running at 70% of its maximum speed. The extract was further homogenized by about 5 passes through a 40 mL Dounce tissue grinder. The extract was then centrifuged at about 500×g for about 5 minutes to pellet large debris. The supernatant was collected; the pellet was washed with an additional 65 mL of 10% sucrose buffer and centrifuged at 500×g for about 5 minutes. The second supernatant was collected and combined with the first supernatant, and the pool was filtered through a 100μ CellMicroSieve™ mesh to remove residual debris (available from BioDesign of New York, Carmel, N.Y.).
Neuronal membranes containing active GABA receptors were collected via sucrose density centrifugation by the following method. About 8 mL of 35% sucrose buffer (35% sucrose (w/w) in 10 mM Tris, pH 7.5), were dispensed into each of six 38 mL ultracentrifuge tubes. These layers were overlaid with about 8 mL of 20% sucrose buffer (20% sucrose (w/w) in 10 mM Tris, pH 7.5), and finally overlaid with about 20 mL of filtered extract supernatant. The tubes were centrifuged at about 120,000×g for about 100 min at 4° C. After centrifugation, the 10% sucrose layer and most of the 20% sucrose layer were removed by aspiration. The membranes at the interface of the 20% sucrose and 35% sucrose layers were collected, pooled, diluted with 10% sucrose buffer, and centrifuged at about 120,000×g for about 40 min at 4° C. After centrifugation, the supernatant was discarded, and the pellets resuspended in about 6.5 mL of assay buffer (10 mM phosphate, 300 mM NaCl, pH 7.5) using a 10 mL Potter-Elvehjem tissue grinder with a Teflon® pestle. Protein concentration was determined by the Bio-Rad Protein Assay (available from Bio-Rad Laboratories, Hercules, Calif.) using bovine serum albumin as a standard. The membranes were aliquoted and stored in liquid nitrogen for up to 2 months before use.
Housefly neuronal membranes were prepared as described above from housefly heads. Test compounds were dissolved in dimethylsulfoxide (DMSO) at concentrations ranging from about 2 nM to about 100 mM. About 1 μL of a dissolved test compound was dispensed into a well of a 96-well polystyrene plate. About 100 μL of ice cold assay buffer (10 mM phosphate, 300 mM NaCl, pH 7.5) containing 5.2 nM 4′-Ethynyl-4-n-[2,3-^3H2]propylbicycloorthobenzoate (^3H-EBOB, 38 Ci/mmol, available from NEN Life Science Products, Boston, Mass.) was added to the well, followed by about 100 μL of ice cold assay buffer containing about 0.5-1.0 mg/mL housefly neuronal membranes. Control wells were prepared the same way except that the housefly neuronal membranes were omitted from the “negative” wells, and the test compounds were omitted from the “positive” wells. […]

[2] = molecular target: Mouse Brain GABA Receptors; assay: In vitro assay of binding to mouse brain GABA receptors (3H-EBOB displacement, mouse brain membranes); settings: displacement of 5.2 nM 3H-EBOB, about 45 min at about 24° C.
Procedure: Mouse brains were obtained from carbon dioxide-asphyxiated Swiss-Webster mice, washed with phosphate-buffered saline, and used either fresh or after storage at −80° C. for up to 10 months. Unless specified, all preparation steps were performed at 0-4° C. For each preparation, 20 brains were suspended in about 40 mL of 0.32 M sucrose and homogenized for about 2 minutes, using a Tissumizer™ homogenizer equipped with a SDT-100EN probe (available from Tekmar-Dohrmann, Cincinnati, Ohio) running at 50% of its maximum speed. The extract was centrifuged for about 5 min at about 1000×g to pellet intact brain tissue. The supernatant was retained and the pellet washed with an additional 40 mL of 0.32 M sucrose and centrifuged at 1000×g for about 5 minutes. The 1000×g supernatants were combined and centrifuged at about 10,000×g for about 20 min to pellet membranes. The 10,000×g supernatant was discarded and the pellet was resuspended in about 20 mL of water containing 1 mM EDTA. The sample was dialyzed two times for about 3 hours each against about 3 L of water. The sample was then centrifuged at about 25,000×g for about 30 min to pellet the membranes. After centrifugation, the supernatant was discarded and the wet pellet recovered. The protein concentration of the pellet was determined by the Bio-Rad Protein Assay (available from Bio-Rad Laboratories, Hercules, Calif.) using bovine serum albumin as a standard. The membranes were aliquoted and stored at −80° C. for up to 6 months before use.
Mouse brain membranes were prepared as described above from dissected mouse brains. Test compounds were dissolved in dimethylsulfoxide (DMSO) at concentrations ranging from about 2 nM to about 100 mM. About 1 μL of a dissolved test compound was dispensed into a well of a 96-well polystyrene plate. About 100 μL of ice cold assay buffer (10 mM phosphate, 300 mM NaCl, pH 7.5) containing 5.2 nM 4′-Ethynyl-4-n-[2,3-^3H2]propylbicycloorthobenzoate (^3H-EBOB, 38 Ci/mmol, available from NEN Life Science Products, Boston, Mass.) was added to the well, followed by about 100 μL of ice cold assay buffer containing about 0.25-0.5 mg/mL mouse brain membranes. Control wells were prepared the same way except that the mouse brain membranes were omitted from the “negative” wells, and the test compounds were omitted from the “positive” wells. The samples were incubated for about 45 min at about 24° C. and then filtered on a 0.1% (w/v) polyethylenimine-soaked glass fiber Filtermat A (available from EG&G Wallac Inc., Gaithersburg, Md.) followed by four 100 mL rinses of cold assay buffer using a Harvester 96® cell harvester (available from Tomtec, Orange, Conn.). The filtermat was air dried and radioactivity bound to the filtermat was detected with either a 1450 MicroBeta® Trilux scintillation counter (available from EG&G Wallac Inc.) or a Topcount NXT™ scintillation counter (available from Packard Instrument Co., Meriden, Conn.) using standard methods.
Specific binding was considered to be the difference between total ^3H bound to the mouse brain membranes in the absence of any inhibitors and nonspecific ^3H bound to the mouse brain membranes upon the addition of 5 μM unlabeled EBOB. The average radioactivity contained in the “negative” wells was subtracted from each of the assay wells. […] Compounds that displaced ^3H-EBOB specifically bound to the mouse brain membranes were tested at 24-48 different final concentrations, varying from about 1 nM to about 125 μM, in order to determine the concentration at which 50% of the maximum inhibition due to the addition of that compound was observed (IC50). […]

[3] = system: cat fleas (Ctenocephalides felis), CO Fleas; assay: In vivo cat flea contact assay, CO fleas; settings: Ctenocephalides felis, topical; contact with treated filter disk in vial, about 24-30 hours; mM = concentration of the DMSO solution, about 1 μL applied; read-out: LD50 (mM), CO Fleas
Procedure: This example describes an in vivo assay to screen compounds for their ability to kill cat fleas via contact.
Test compounds were dissolved in dimethylsulfoxide (DMSO) at concentrations ranging from about 0.05 mM to about 100 mM. About 1 μL of dissolved test compound was dispensed onto a 6 mm (diameter) GF/C filter disk (filter material available from Whatman Inc., Clifton, N.J.) in the bottom of a 4 mL screw-top glass vial and allowed to air dry 24-48 hours. Positive control vials were prepared in the same manner except that no test compounds were dissolved in the DMSO. About 20 newly emerged cat fleas (Ctenocephalides felis) were sedated by refrigeration at 0-4° C. and transferred to each vial. Each vial was sealed with a thin, perforated Teflon™ septum secured by an open top screw cap and held vertically in the dark. After about 24-30 hours, the healthy, moribund, and dead cat fleas in each vial were counted. The percentage of dead cat fleas in each vial was then calculated using the formula M=100(D−(FC/100))/(F−(FC/100)), in which M is the percentage of dead cat fleas due to the addition of the test compound, D is the number of dead cat fleas in the test vial, F is the total number of cat fleas in the test vial, and C is the percentage of dead cat fleas in the control vials.

Question: For `FC(F)(F)c1cc(Cl)c(-n2cc3sccc3n2)c(Cl)c1` [Compound 22, 2-[2,6-Dichloro-4-(trifluoromethyl)phenyl]-2H-thieno[3,2-c]pyrazole], which “Compounds with the most activity (housefly 3H-EBOB binding)” value (“Compounds with the most activity” below) [1] is on record?
Answer: most activity

Question: What does the source list for `CC1(O)c2cn(-c3c(Cl)cc(C(F)(F)F)cc3Cl)nc2CC1(F)F` (stereo not shown) [Compound 93, 2-[2,6-Dichloro-4-(trifluoromethyl)phenyl]-5,5-difluoro-4-methyl-2,4,5,6-tetrahydrocyclopenta[c]pyrazol-4-ol]?
Answer: IC50 ([1]; displacement of 5.2 nM 3H-EBOB, housefly head neuronal membranes, about 45 min at about 24° C., read-out: IC50 (nM), Fly Head): 100 nM; IC50 [2]: 2300 nM

Question: What does the source list for `CC1(C)CCc2cn(-c3c(Cl)cc(C(F)(F)F)cc3Cl)nc21` [Compound 12, 2-[2,6-Dichloro-4-(trifluoromethyl)phenyl]-6,6-dimethyl-2,4,5,6-tetrahydrocyclopenta[c]pyrazole]?
Answer: Compounds with the most activity (housefly 3H-EBOB binding) [1]: most activity; IC50 [2]: 30000 nM

Question: Which IC50 [2] does the source give for `FC1c2nn(-c3c(Cl)cc(C(F)(F)F)cc3Cl)cc2C(F)(F)C1F` (stereo not shown) [Compound 89, 2-[2,6-Dichloro-4-(trifluoromethyl)phenyl]-4,4,5,6-tetrafluoro-2,4,5,6-tetrahydrocyclopenta[c]pyrazole] here?
Answer: 180 nM

Question: What about the LC50 [3] of the same compound?
Answer: < 0.5 mM

Question: How did the IC50 [2] turn out when `FC(F)(F)c1cc(Cl)c(-n2cc3c(n2)CC=C3)c(Cl)c1` [Compound 63, 2-[2,6-Dichloro-4-(trifluoromethyl)phenyl]-6-hydrocyclopenta[1,2-c]pyrazole] was run?
Answer: 1000 nM

Question: With `CSC1CCc2nn(-c3c(Cl)cc(C(F)(F)F)cc3Cl)cc21` (stereo not shown) [Compound 68, 2-[2,6-Dichloro-4-(trifluoromethyl)phenyl]-4-methylthio-2,4,5,6-tetrahydrocyclopenta[c]pyrazole] as the compound, how does the IC50 [2] read?
Answer: 1000 nM

Question: Which IC50 [2] does the source give for `O=S(=O)(Oc1c2c(nn1-c1c(Cl)cc(C(F)(F)F)cc1Cl)CSC2)c1ccccc1` [Compound 6, 2-[2,6-Dichloro-4-(trifluoromethyl)phenyl]-4,6-dihydrothieno-[3,4-c]pyrazole-3-yl benzenesulfonate] here?
Answer: 730 nM

Question: `FC(F)(F)c1cc(Cl)c(-n2cc3c(n2)CCSC3)c(Cl)c1` [Compound 10, 2-[2,6-Dichloro-4-(trifluoromethyl)phenyl]-2H,4H,6H,7H-thiano[4,3-c]pyrazole] was tested. Which “Compounds with the most activity” value [1] did it give?
Answer: most activity

Question: And the IC50 [2]?
Answer: 3800 nM

Question: What does the source list for `CC1(O)c2cn(-c3c(Cl)cc(C(F)(F)F)cc3Cl)nc2CC1F` (stereo not shown) [Compound 57, 2-[2,6-Dichloro-4-(trifluoromethyl)phenyl]-5-fluoro-4-methyl-2,4,5,6-tetrahydrocyclopenta[c]pyrazol-4-ol]?
Answer: IC50 [2]: 25000 nM; LC50 [3]: 3.8 mM

Question: How did the IC50 [2] turn out when `F[C@@H]1Cc2cn(-c3c(Cl)cc(C(F)(F)F)cc3Cl)nc2[C@@H]1F` (relative stereo) [Compound 81, cis-2-[2,6-Dichloro-4-(trifluoromethyl)phenyl]-5,6-difluoro-2,4,5,6-tetrahydrocyclopenta[c]pyrazole] was run?
Answer: 1000 nM

Question: And the LC50 [3]?
Answer: 1.5 mM

Question: Which “Compounds with the most activity” value [1] does the source give for `CC1CCc2nn(-c3c(Cl)cc(C(F)(F)F)cc3Cl)cc21` (racemic) [Compound 42, 2-[2,6-Dichloro-4-(trifluoromethyl)phenyl]-4-methyl-2,4,5,6-tetrahydrocyclopenta[c]pyrazole] here?
Answer: most activity

Question: `Nc1c2c(nn1-c1c(Cl)cc(C(F)(F)F)cc1Cl)CSC2` [Compound 1, 2-[2,6-Dichloro-4-(trifluoromethyl)phenyl]-4,6-dihydrothieno-[3,4-c]pyrazole-3-ylamine] was tested. Which “Compounds with the most activity” value [1] did it give?
Answer: most activity

Question: How did the IC50 [2] turn out when `O=S(=O)(C1CCc2nn(-c3c(Cl)cc(C(F)(F)F)cc3Cl)cc21)C(F)(F)F` (stereo not shown) [Compound 67] was run?
Answer: 25000 nM
